Laboratory results published in patent US20160050919A1, “ACETYL-COA CARBOXYLASE INHIBITOR HERBICIDE AND AUXIN HERBICIDE FORMULATIONS” (Nufarm Americas, Inc., priority 2014, published 2016).

Columns and labels:
[1] = Stability of active ingredients in the formulation, two weeks at 54° C.; conditions: for % wt after 2 week at 54° C. / Initial % wt: formulation of Table 5 (emulsion)
[2] = Stability of fenoxaprop-p-ethyl in the formulation at ambient temperature (~22° C.); type: physicochemical
Experimental: The formulation described in table 1 was tested for stability of all three active ingredients for two weeks at 54° C.

[3] = formulation of table 1 (micro emulsion, pH 6.7), two weeks at 54° C.
[4] = formulation of table 3 (emulsifiable concentrate), two weeks at 54° C.

Structure (SMILES)	% wt after 2 week at 54° C. [1] [% wt]	Initial % wt [1] [% wt]	stability of active ingredient [1, 3]	stability of active ingredient [1, 4]	also measured
COc1c(Cl)ccc(Cl)c1C(=O)O [Dicamba]	0.45	0.64	remained unchanged	remained unchanged	
Cc1cc(Cl)ccc1O[C@@H](C)C(=O)O [MCPP-p]	1.39	1.53			
O=C(O)COc1nc(Cl)c(Cl)cc1Cl [Triclopyr, Triclopyr ACID]	1.75	1.78			
CCOC(=O)[C@@H](C)Oc1ccc(Oc2nc3ccc(Cl)cc3o2)cc1 [fenoxaprop-p-ethyl, Fenoxaprop-p-ethyl]	0.60	0.60			fenoxaprop-p-ethyl content, 2-week ([2]; formulation of table 1, 2 weeks): 2.61 wt %; fenoxaprop-p-ethyl content, 4-week ([2]; formulation of table 1, 4 weeks): 2.24 wt %; fenoxaprop-p-ethyl content, 6-week ([2]; formulation of table 1, 6 weeks): 2.15 wt %; fenoxaprop-p-ethyl content, 8-week ([2]; formulation of table 1, 8 weeks): 1.91 wt %; fenoxaprop-p-ethyl content, 12-week ([2]; formulation of table 1, 12 weeks): 1.28 wt %; fenoxaprop-p-ethyl content, 14-week ([2]; formulation of table 1, 14 weeks): 0.87 wt %; fenoxaprop-p-ethyl content, Initial ([2]; formulation of table 1, initial): 2.82 wt %; recovered after storage [1, 3]: 1%
CCCCCCC(C)OC(=O)COc1nc(F)c(Cl)c(N)c1Cl (centres unmarked) [fluroxypyr MHE, Fluroxypyr MHE]			remained unchanged	remained unchanged	
